In patent publication US6949542B2, “Dihydro-benzo[b][1,4]diazepin-2-one derivatives” (Hoffman-La Roche Inc., priority 2002, dated 2005):

| melting point [°C] | SMILES |
| --- | --- |
| 201 | CN(C)c1cc2c(cc1C(F)(F)F)NC(=O)CC(c1cccc(-c3ccccn3)c1)=N2 [Example 6, 7-Dimethylamino-4-(3-pyridin-2-yl-phenyl)-8-trifluoromethyl-1,3-dihydro-benzo[b][1,4]diazepin-2-one] |
| 210 | O=C1CC(c2cccc(-c3cccnc3)c2)=Nc2ccc(F)cc2N1 [Example 7, 8-Fluoro-4-(3-pyridin-3-yl-phenyl)-1,3-dihydro-benzo[b][1,4]diazepin-2-one] |
| 190 to 192 | O=C1CC(c2cccc(-c3ccncc3)c2)=Nc2ccc(F)cc2N1 [Example 8, 8-Fluoro-4-(3-pyridin-4-yl-phenyl)-1,3-dihydro-benzo[b][1,4]diazepin-2-one] |
| 233 to 237 | Cc1ccc(-c2cccc(C3=Nc4cc(N(C)C)c(C(F)(F)F)cc4NC(=O)C3)c2)cn1 [Example 10, 7-Dimethylamino-4-[3-(6-methyl-pyridin-3-yl)-phenyl]-8-trifluoromethyl-1,3-dihydro-benzo[b][1,4]diazepin-2-one] |
| 225 to 226 | Cc1ccc(-c2cccc(C3=Nc4ccc(F)cc4NC(=O)C3)c2)cn1 [Example 11, 8-Fluoro-4-[3-(6-methyl-pyridin-3-yl)-phenyl]-1,3-dihydro-benzo[b][1,4]diazepin-2-one] |
| 233 | Cc1ccc(-c2cccc(C3=Nc4ccc(C(F)(F)F)cc4NC(=O)C3)c2)nn1 [Example 14, 4-[3-(6-Methyl-pyridazin-3-yl)-phenyl]-8-trifluoromethyl-1,3-dihydro-benzo[b][1,4]diazepin-2-one] |
| 174 | Cc1ccc(-c2cccc(C3=Nc4cc(N(C)C)c(C(F)(F)F)cc4NC(=O)C3)c2)nn1 [Example 15, 7-Dimethylamino-4-[3-(6-methyl-pyridazin-3-yl)-phenyl]-8-trifluoromethyl-1,3-dihydro-benzo[b][1,4]diazepin-2-one] |
| 219 to 220 | Cc1ncccc1-c1cccc(C2=Nc3ccc(C(F)(F)F)cc3NC(=O)C2)c1 [Example 17, 4-[3-(2-Methyl-pyridin-3-yl)-phenyl]-8-trifluoromethyl-1,3-dihydro-benzo[b][1,4]diazepin-2-one] |
| 219 to 220 | Cc1ncccc1-c1cccc(C2=Nc3ccc(F)cc3NC(=O)C2)c1 [Example 18, 8-Fluoro-4-[3-(2-methyl-pyridin-3-yl)-phenyl]-1,3-dihydro-benzo[b][1,4]diazepin-2-one] |
| 192 to 194 | Cc1ncccc1-c1cccc(C2=Nc3ccc(-c4ccccc4F)cc3NC(=O)C2)c1 [Example 19, 8-(2-Fluoro-phenyl)-4-[3-(2-methyl-pyridin-3-yl)-phenyl]-1,3-dihydro-benzo[b][1,4]diazepin-2-one] |
| 215 to 220 | Cc1ccc(-c2cccc(C3=Nc4cc(F)c(Cl)cc4NC(=O)C3)c2)cn1 [Example 23, 8-Chloro-7-fluoro-4-[3-(6-methyl-pyridin-3-yl)-phenyl]-1,3-dihydro-benzo[b][1,4]diazepin-2-one] |
| 229 | Cc1cc2c(cc1Cl)NC(=O)CC(c1cccc(-c3cccnc3)c1)=N2 [Example 26, 8-Chloro-7-methyl-4-(3-pyridin-3-yl-phenyl)-1,3-dihydro-benzo[b][1,4]diazepin-2-one] |
| 208 to 209 | O=C1CC(c2cccc(-c3cccnc3)c2)=Nc2ccc(-c3ccccc3F)cc2N1 [Example 29, 8-(2-Fluoro-phenyl)-4-(3-pyridin-3-yl-phenyl)-1,3-dihydro-benzo[b][1,4]diazepin-2-one] |
| 230 | Cc1ccc(-c2cccc(C3=Nc4ccc(Cl)cc4NC(=O)C3)c2)cn1 [Example 31, 8-Chloro-4-[3-(6-methyl-pyridin-3-yl)-phenyl]-1,3-dihydro-benzo[b][1,4]diazepin-2-one] |
| 198 | Cc1ncccc1-c1cccc(C2=Nc3ccc(Cl)cc3NC(=O)C2)c1 [Example 32, 8-Chloro-4-[3-(2-methyl-pyridin-3-yl)-phenyl]-1,3-dihydro-benzo[b][1,4]diazepin-2-one] |
